Reference: PubChem BioAssay (NCI)
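48-hour exposure; five concentrations; linearly interpolated endpoints. At the GI50, growth is halved. TGI marks complete inhibition of growth.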

Columns and labels:
Experiment in all cases: NCI-60 cell line screen, 48 h
HL-60(TB) leukemia = test system: HL-60(TB) leukemia
SR leukemia = test system: SR leukemia
TK-10 renal = test system: TK-10 renal
RXF 393 renal = test system: RXF 393 renal
U251 CNS = test system: U251 CNS
T-47D breast = test system: T-47D breast
UACC-62 melanoma = test system: UACC-62 melanoma
UACC-257 melanoma = test system: UACC-257 melanoma
MOLT-4 leukemia = test system: MOLT-4 leukemia
SF-268 CNS = test system: SF-268 CNS
OVCAR-4 ovarian = test system: OVCAR-4 ovarian
SN12C renal = test system: SN12C renal
UO-31 renal = test system: UO-31 renal
SW-620 colon = test system: SW-620 colon
MDA-MB-231 breast = test system: MDA-MB-231 breast
COLO 205 colon = test system: COLO 205 colon
786-0 renal = test system: 786-0 renal
SK-MEL-5 melanoma = test system: SK-MEL-5 melanoma
SNB-19 CNS = test system: SNB-19 CNS
HCC-2998 colon = test system: HCC-2998 colon
CAKI-1 renal = test system: CAKI-1 renal
NCI-H23 lung = test system: NCI-H23 lung
A498 renal = test system: A498 renal
SK-OV-3 ovarian = test system: SK-OV-3 ovarian
NCI-H522 lung = test system: NCI-H522 lung
A549 NSCLC = test system: A549 NSCLC
SK-MEL-2 melanoma = test system: SK-MEL-2 melanoma
HT29 colon = test system: HT29 colon
PC-3 prostate = test system: PC-3 prostate
HS 578T breast = test system: HS 578T breast
OVCAR-5 ovarian = test system: OVCAR-5 ovarian
HOP-62 NSCLC = test system: HOP-62 NSCLC
RPMI-8226 leukemia = test system: RPMI-8226 leukemia
SK-MEL-28 melanoma = test system: SK-MEL-28 melanoma
IGROV1 ovarian = test system: IGROV1 ovarian
NCI/ADR-RES ovarian = test system: NCI/ADR-RES ovarian
KM12 colon = test system: KM12 colon
LOX IMVI melanoma = test system: LOX IMVI melanoma
OVCAR-8 ovarian = test system: OVCAR-8 ovarian
NCI-H460 lung = test system: NCI-H460 lung
HCT-116 colon = test system: HCT-116 colon
DU-145 prostate = test system: DU-145 prostate
SNB-75 CNS = test system: SNB-75 CNS
HCT-15 colon = test system: HCT-15 colon
MCF7 breast = test system: MCF7 breast
MALME-3M melanoma = test system: MALME-3M melanoma
NCI-H226 lung = test system: NCI-H226 lung
CCRF-CEM leukemia = test system: CCRF-CEM leukemia
OVCAR-3 ovarian = test system: OVCAR-3 ovarian
ACHN renal = test system: ACHN renal
BT-549 breast = test system: BT-549 breast
K-562 leukemia = test system: K-562 leukemia

SMILES: CCOC(=O)c1cc2c(n1Cc1cc(OC)c(OC)c(OC)c1)-c1oncc1CCC2
- GI50 (HL-60(TB) leukemia): 221 nM
- TGI (HL-60(TB) leukemia): 765 nM
- GI50 (SR leukemia): 46.4 nM
- TGI (SR leukemia): 5500 nM
- GI50 (TK-10 renal): 64900 nM
- TGI (TK-10 renal): > 100000 nM
- GI50 (RXF 393 renal): 126 nM
- TGI (RXF 393 renal): > 100000 nM
- GI50 (U251 CNS): 214 nM
- TGI (U251 CNS): 5010 nM
- GI50 (T-47D breast): 373 nM
- TGI (T-47D breast): 53400 nM
- GI50 (UACC-62 melanoma): 66.6 nM
- TGI (UACC-62 melanoma): > 40300 nM
- GI50 (UACC-257 melanoma): 177 nM
- TGI (UACC-257 melanoma): 28500 nM
- GI50 (MOLT-4 leukemia): 406 nM
- TGI (MOLT-4 leukemia): > 44800 nM
- GI50 (SF-268 CNS): 657 nM
- TGI (SF-268 CNS): > 60200 nM
- GI50 (OVCAR-4 ovarian): 1360 nM
- TGI (OVCAR-4 ovarian): > 67400 nM
- GI50 (SN12C renal): 628 nM
- TGI (SN12C renal): > 40100 nM
- GI50 (UO-31 renal): 303 nM
- TGI (UO-31 renal): > 67400 nM
- GI50 (SW-620 colon): 186 nM
- TGI (SW-620 colon): > 100000 nM
- GI50 (MDA-MB-231 breast): 372 nM
- TGI (MDA-MB-231 breast): 2460 nM
- GI50 (COLO 205 colon): 109 nM
- TGI (COLO 205 colon): 495 nM
- GI50 (786-0 renal): 583 nM
- TGI (786-0 renal): > 35900 nM
- GI50 (SK-MEL-5 melanoma): 207 nM
- TGI (SK-MEL-5 melanoma): 7010 nM
- GI50 (SNB-19 CNS): 604 nM
- TGI (SNB-19 CNS): > 100000 nM
- GI50 (HCC-2998 colon): 335 nM
- TGI (HCC-2998 colon): 5170 nM
- GI50 (CAKI-1 renal): 105 nM
- TGI (CAKI-1 renal): > 27800 nM
- GI50 (NCI-H23 lung): 388 nM
- TGI (NCI-H23 lung): > 43200 nM
- GI50 (A498 renal): 60.2 nM
- TGI (A498 renal): 435 nM
- GI50 (SK-OV-3 ovarian): 185 nM
- TGI (SK-OV-3 ovarian): 3550 nM
- GI50 (NCI-H522 lung): 20.8 nM
- TGI (NCI-H522 lung): 73 nM
- GI50 (A549 NSCLC): 234 nM
- TGI (A549 NSCLC): 65400 nM
- GI50 (SK-MEL-2 melanoma): 84.1 nM
- TGI (SK-MEL-2 melanoma): 545 nM
- GI50 (HT29 colon): 138 nM
- TGI (HT29 colon): 2670 nM
- GI50 (PC-3 prostate): 209 nM
- TGI (PC-3 prostate): > 65300 nM
- GI50 (HS 578T breast): 343 nM
- TGI (HS 578T breast): > 100000 nM
- GI50 (OVCAR-5 ovarian): 481 nM
- TGI (OVCAR-5 ovarian): > 100000 nM
- GI50 (HOP-62 NSCLC): 447 nM
- TGI (HOP-62 NSCLC): 37200 nM
- GI50 (RPMI-8226 leukemia): 420 nM
- TGI (RPMI-8226 leukemia): 21900 nM
- GI50 (SK-MEL-28 melanoma): 255 nM
- TGI (SK-MEL-28 melanoma): > 54500 nM
- GI50 (IGROV1 ovarian): 147 nM
- TGI (IGROV1 ovarian): 5360 nM
- GI50 (NCI/ADR-RES ovarian): 61.4 nM
- TGI (NCI/ADR-RES ovarian): > 100000 nM
- GI50 (KM12 colon): 88.4 nM
- TGI (KM12 colon): > 55400 nM
- GI50 (LOX IMVI melanoma): 401 nM
- TGI (LOX IMVI melanoma): > 35700 nM
- GI50 (OVCAR-8 ovarian): 332 nM
- TGI (OVCAR-8 ovarian): > 49700 nM
- GI50 (NCI-H460 lung): 284 nM
- TGI (NCI-H460 lung): 13700 nM
- GI50 (HCT-116 colon): 235 nM
- TGI (HCT-116 colon): > 100000 nM
- GI50 (DU-145 prostate): 302 nM
- TGI (DU-145 prostate): 6870 nM
- GI50 (SNB-75 CNS): 111 nM
- TGI (SNB-75 CNS): > 61700 nM
- GI50 (HCT-15 colon): 186 nM
- TGI (HCT-15 colon): > 100000 nM
- GI50 (MCF7 breast): 58.9 nM
- TGI (MCF7 breast): > 66500 nM
- GI50 (MALME-3M melanoma): 61 nM
- TGI (MALME-3M melanoma): > 52300 nM
- GI50 (NCI-H226 lung): 1270 nM
- TGI (NCI-H226 lung): > 53000 nM
- GI50 (CCRF-CEM leukemia): 318 nM
- TGI (CCRF-CEM leukemia): 5380 nM
- GI50 (OVCAR-3 ovarian): 90.1 nM
- TGI (OVCAR-3 ovarian): 399 nM
- GI50 (ACHN renal): 296 nM
- TGI (ACHN renal): > 59900 nM
- GI50 (BT-549 breast): 647 nM
- TGI (BT-549 breast): 22000 nM
- GI50 (K-562 leukemia): 97.3 nM
- TGI (K-562 leukemia): > 100000 nM
